Laboratory results: ChEMBL document CHEMBL3885881, “DrugMatrix”

Species: Rattus norvegicus
Assay: DrugMatrix - Regimen: Daily Repeat
Assay type: toxicity, organism-based, Sprague-Dawley
Parameters: regimen Daily Repeat, gender Male, age 6-8 weeks
Details: in vivo, sc, route subcutaneous, […]; for ABSOLUTE BASOPHIL / ABSOLUTE EOSINOPHIL / ABSOLUTE LYMPHOCYTE / ABSOLUTE MONOCYTE / ABSOLUTE SEGMENTED NEUTROPHIL / BASOPHIL / EOSINOPHIL / ERYTHROCYTE COUNT / HEMATOCRIT / HEMOGLOBIN / LEUKOCYTE COUNT / LYMPHOCYTE / MEAN CORPUSCULAR HEMOGLOBIN / MEAN CORPUSCULAR HEMOGLOBIN CONCENTRATION / MEAN CORPUSCULAR VOLUME / MONOCYTE / NEUTROPHIL / NUCLEATED RED BLOOD CELLS / PLATELET COUNT: tissue Blood; for ALANINE AMINOTRANSFERASE / ALKALINE PHOSPHATASE / ASPARTATE AMINOTRANSFERASE / BLOOD UREA NITROGEN / CARBON DIOXIDE / CHLORIDE / CHOLESTEROL / CREATINE PHOSPHOKINASE / CREATININE / GLUCOSE / LACTATE DEHYDROGENASE / LIPASE / PHOSPHORUS / POTASSIUM / SODIUM / TOTAL BILIRUBIN / TOTAL PROTEIN / URIC ACID: tissue Plasma
[1] = 0 mg/kg, 72 h, dose level Control, time 3 day
[2] = 0 mg/kg, 120 h, dose level Control, time 5 day
[3] = 17 mg/kg, 72 h, dose level Low, time 3 day

## CC(C)Cn1cnc2c(N)nc3ccccc3c21 [IMIQUIMOD]
[1]
  ABSOLUTE BASOPHIL: 0 CELLS/uL
  ABSOLUTE EOSINOPHIL: 42.67 CELLS/uL
  ABSOLUTE LYMPHOCYTE: 10202 CELLS/uL
  ABSOLUTE MONOCYTE: 261.5 CELLS/uL
  ABSOLUTE SEGMENTED NEUTROPHIL: 2193.83 CELLS/uL
  BASOPHIL: 0%
  EOSINOPHIL: 0.33%
  ERYTHROCYTE COUNT: 5.63 x10E6/uL
  HEMATOCRIT: 35.35%
  HEMOGLOBIN: 13.07 G/DL
  LEUKOCYTE COUNT: 12.7 x10E3/uL
  LYMPHOCYTE: 81.17%
  MEAN CORPUSCULAR HEMOGLOBIN: 23.23 pg
  MEAN CORPUSCULAR HEMOGLOBIN CONCENTRATION: 36.97 G/DL
  MEAN CORPUSCULAR VOLUME: 62.82 fL
  MONOCYTE: 2%
  NEUTROPHIL: 16.5%
  NUCLEATED RED BLOOD CELLS: 0 /100WBC
  PLATELET COUNT: 1180.33 x10E3/uL
  ALANINE AMINOTRANSFERASE: 48.67 u/L
  ALKALINE PHOSPHATASE: 360.67 u/L
  ASPARTATE AMINOTRANSFERASE: 85.5 u/L
  BLOOD UREA NITROGEN: 17.83 mg/dL
  CARBON DIOXIDE: 26.17 mmol/L
  CHLORIDE: 101.83 MEQ/L
  CHOLESTEROL: 71 mg/dL
  CREATINE PHOSPHOKINASE: 515.17 u/L
  CREATININE: 0.22 mg/dL
  GLUCOSE: 192.5 mg/dL
  LACTATE DEHYDROGENASE: 214.67 u/L
  LIPASE: 8.5 u/L
  PHOSPHORUS: 12.95 mg/dL
  POTASSIUM: 6.39 MEQ/L
  SODIUM: 142.38 MEQ/L
  TOTAL BILIRUBIN: 0.18 mg/dL
  TOTAL PROTEIN: 5.95 G/DL
  URIC ACID: 1.83 mg/dL
[2]
  ABSOLUTE BASOPHIL: 0 CELLS/uL
  ABSOLUTE EOSINOPHIL: 188.5 CELLS/uL
  ABSOLUTE LYMPHOCYTE: 12360.83 CELLS/uL
  ABSOLUTE MONOCYTE: 64.33 CELLS/uL
  ABSOLUTE SEGMENTED NEUTROPHIL: 1986.33 CELLS/uL
  BASOPHIL: 0%
  EOSINOPHIL: 1.33%
  ERYTHROCYTE COUNT: 5.52 x10E6/uL
  HEMATOCRIT: 35.82%
  HEMOGLOBIN: 13.25 G/DL
  LEUKOCYTE COUNT: 14.6 x10E3/uL
  LYMPHOCYTE: 84.5%
  MEAN CORPUSCULAR HEMOGLOBIN: 24.05 pg
  MEAN CORPUSCULAR HEMOGLOBIN CONCENTRATION: 36.98 G/DL
  MEAN CORPUSCULAR VOLUME: 64.97 fL
  MONOCYTE: 0.5%
  NEUTROPHIL: 13.67%
  NUCLEATED RED BLOOD CELLS: 0 /100WBC
  PLATELET COUNT: 1297.83 x10E3/uL
  ALANINE AMINOTRANSFERASE: 51.17 u/L
  ALKALINE PHOSPHATASE: 393.17 u/L
  ASPARTATE AMINOTRANSFERASE: 111 u/L
  BLOOD UREA NITROGEN: 18.17 mg/dL
  CARBON DIOXIDE: 25 mmol/L
  CHLORIDE: 105.17 MEQ/L
  CHOLESTEROL: 65.5 mg/dL
  CREATINE PHOSPHOKINASE: 911.5 u/L
  CREATININE: 0.21 mg/dL
  GLUCOSE: 183 mg/dL
  LACTATE DEHYDROGENASE: 189 u/L
  LIPASE: 8.33 u/L
  PHOSPHORUS: 12.78 mg/dL
  POTASSIUM: 6.05 MEQ/L
  SODIUM: 144.57 MEQ/L
  TOTAL BILIRUBIN: 0.25 mg/dL
  TOTAL PROTEIN: 5.83 G/DL
  URIC ACID: 1.58 mg/dL
[3]
  ABSOLUTE BASOPHIL: 0 CELLS/uL
  ABSOLUTE EOSINOPHIL: 0 CELLS/uL
  ABSOLUTE LYMPHOCYTE: 10952 CELLS/uL
  ABSOLUTE MONOCYTE: 127.67 CELLS/uL
  ABSOLUTE SEGMENTED NEUTROPHIL: 1687 CELLS/uL
  BASOPHIL: 0%
  EOSINOPHIL: 0%
  ERYTHROCYTE COUNT: 5.23 x10E6/uL
  HEMATOCRIT: 32.37%
  HEMOGLOBIN: 11.97 G/DL
  LEUKOCYTE COUNT: 12.77 x10E3/uL
  LYMPHOCYTE: 86.33%
  MEAN CORPUSCULAR HEMOGLOBIN: 22.9 pg
  MEAN CORPUSCULAR HEMOGLOBIN CONCENTRATION: 37 G/DL
  MEAN CORPUSCULAR VOLUME: 61.93 fL
  MONOCYTE: 1%
  NEUTROPHIL: 12.67%
  NUCLEATED RED BLOOD CELLS: 0 /100WBC
  PLATELET COUNT: 1138.33 x10E3/uL
  ALANINE AMINOTRANSFERASE: 57.67 u/L
  ALKALINE PHOSPHATASE: 333.67 u/L
  ASPARTATE AMINOTRANSFERASE: 91.67 u/L
  BLOOD UREA NITROGEN: 17.33 mg/dL
  CARBON DIOXIDE: 27 mmol/L
  CHLORIDE: 104.67 MEQ/L
  CHOLESTEROL: 71 mg/dL
  CREATINE PHOSPHOKINASE: 483 u/L
  CREATININE: 0.24 mg/dL
  GLUCOSE: 177 mg/dL
  LACTATE DEHYDROGENASE: 117.33 u/L
  LIPASE: 7.67 u/L
  PHOSPHORUS: 13 mg/dL
  POTASSIUM: 6.18 MEQ/L
  SODIUM: 146.27 MEQ/L
  TOTAL BILIRUBIN: 0.17 mg/dL
  TOTAL PROTEIN: 5.53 G/DL
  URIC ACID: 1.6 mg/dL
